Experimental data from patent publication US20230218666A1, “ANTIMICROBIAL COMBINATIONS” (MARVELBIOTICS LIMITED, priority 2020, published 2023).
Where “and” joins values, the source holds several entries; their conditions need not be identical. Identical values can stand only once.

How the values were obtained:
Lactobacillus plantarum [1] = test: Phase 2b: survival of Lactobacillus plantarum after 24 hours contact at a range of concentrations; details: for Minimum concentration at which growth was observed (%): single agent, n = 3; for Growth observed after recovering viable Lactobacillus plantarum: 24 hours, replicates 1.1-3.2
Protocol: Twenty-four-hour cultures of L. plantarum were harvested from MRSA and used to prepare a 1×10^8±5×10^7 CFUmL^−1 suspension in MRSB. The starting inoculum was confirmed by serial dilution and plating out the resultant suspensions. […] Each test agent was diluted 1:2 a total of eight times. A 50 μL aliquot of each test agent dilution was added to the wells of a 96-well plate. A 50 μL aliquot of L. plantarum inoculum was added to the test agent and pipette mixed. The 96-well plates were incubated for 24 hours at 37° C.±2° C. and 5% CO2. Following incubation, 100 μL of DE-N was added to each well and pipette mixed. A 10 μL aliquot of each neutralised suspension was taken from each well and spot-plated onto MRSA. The plates were incubated for 24 hours at 37° C.±2° C. and 5% CO2. Following incubation, the presence or absence of growth on the plates was recorded. Testing was performed in triplicate.

Lactobacillus plantarum [2] = test: Phase 2c: survival of Lactobacillus plantarum after 30 minutes, 4 hours and 24 hours contact; format: cell-based; details: for Minimum concentration at which growth was observed (%): single agent, n = 3; for Growth observed after recovering viable Lactobacillus plantarum: replicates 1.1-3.2
Protocol: Three concentrations of each test agent were prepared following the results of Phase 2b. […] Testing was performed in triplicate.

Lactobacillus plantarum [3] = test: Phase 2a: survival of Lactobacillus plantarum after 24 hours contact at stock concentrations
Protocol: Twenty-four-hour cultures of L. plantarum were harvested from MRSA and used to prepare a 1×10^8±5×10^7 CFUmL^−1 suspension in MRSB. The starting inoculum was confirmed by serial dilution and plating out the resultant suspensions. […] A 50 μL aliquot of each test agent was added to the wells of a 96-well plate. A 50 μL aliquot of L. plantarum inoculum was then added to the test agent and pipette mixed. The 96-well plates were incubated for 24 hours at 37° C.±2° C. and 5% CO2. Following incubation, 100 μL of DE-N was added to each well and pipette mixed. A 10 μL aliquot of each neutralised suspension was taken from each well and spot-plated onto MRSA. The plates were incubated for 24 hours at 37° C.±2° C. and 5% CO2. Following incubation, the presence or absence of growth on the plates was recorded. Testing was performed in triplicate.

Copper gluconate
Minimum concentration at which growth was observed (%) (Lactobacillus plantarum [1]; 24 hours contact time): 0.255%
Growth observed after recovering viable Lactobacillus plantarum (Lactobacillus plantarum [1]; concentration 0.064 %): +
Growth observed after recovering viable Lactobacillus plantarum (Lactobacillus plantarum [1]; concentration 0.128 %): +
Growth observed after recovering viable Lactobacillus plantarum (Lactobacillus plantarum [1]; concentration 0.255 %): +
Growth observed after recovering viable Lactobacillus plantarum (Lactobacillus plantarum [1]; concentration 0.510 %): −
Growth observed after recovering viable Lactobacillus plantarum (Lactobacillus plantarum [1]; concentration 1.021 %): −
Growth observed after recovering viable Lactobacillus plantarum (Lactobacillus plantarum [1]; concentration 2.042 %): −
Growth observed after recovering viable Lactobacillus plantarum (Lactobacillus plantarum [1]; concentration 4.084 %): −
Growth observed after recovering viable Lactobacillus plantarum (Lactobacillus plantarum [1]; concentration 8.167 %): −
concentration at which consistent growth was observed across all replicates (Lactobacillus plantarum [2]; 30 minutes contact time): ≤ 4.083%
Minimum concentration at which growth was observed (%) (Lactobacillus plantarum [2]; 30 minutes contact time): 8.167%
Minimum concentration at which growth was observed (%) (Lactobacillus plantarum [2]; 4 hours contact time): 0.510%
Minimum concentration at which growth was observed (%) (Lactobacillus plantarum [2]; 24 hours contact time): 0.255%
Growth observed after recovering viable Lactobacillus plantarum (Lactobacillus plantarum [2]; concentration 0.128 %, 24 hours): +
Growth observed after recovering viable Lactobacillus plantarum (Lactobacillus plantarum [2]; concentration 0.255 %, 4 hours): +
Growth observed after recovering viable Lactobacillus plantarum (Lactobacillus plantarum [2]; concentration 0.255 %, 24 hours): +
Growth observed after recovering viable Lactobacillus plantarum (Lactobacillus plantarum [2]; concentration 0.510 %, 4 hours): +
Growth observed after recovering viable Lactobacillus plantarum (Lactobacillus plantarum [2]; concentration 0.510 %, 24 hours): −
Growth observed after recovering viable Lactobacillus plantarum (Lactobacillus plantarum [2]; concentration 0.510 %, 24 hours, listed as copper gluconate): unable to survive
Growth observed after recovering viable Lactobacillus plantarum (Lactobacillus plantarum [2]; concentration 1.021 %, 4 hours): −
Growth observed after recovering viable Lactobacillus plantarum (Lactobacillus plantarum [2]; concentration 1.021 %, 4 hours, listed as copper gluconate): unable to survive
Growth observed after recovering viable Lactobacillus plantarum (Lactobacillus plantarum [2]; concentration 2.042 %, 30 minutes): +
Growth observed after recovering viable Lactobacillus plantarum (Lactobacillus plantarum [2]; concentration 4.084 %, 30 minutes): +
Growth observed after recovering viable Lactobacillus plantarum (Lactobacillus plantarum [2]; concentration 8.167 %, 30 minutes): − (4×) and + (2×)
Growth observed after recovering viable Lactobacillus plantarum (Lactobacillus plantarum [2]; concentration 8.167 %, 30 minutes, listed as copper gluconate): Growth was observed in two of three replicates
Growth (Lactobacillus plantarum [3]; stock concentration 8.167 %, n = 3): No
Growth (Lactobacillus plantarum [3]; stock concentration 8.167 %, n = 3, listed as copper gluconate): No growth of L. plantarum was observed

Zinc gluconate
Growth of L. plantarum (Lactobacillus plantarum [1]; 24 hours contact time, at all concentrations tested (Table 6)): Growth was observed
Minimum concentration at which growth was observed (%) (Lactobacillus plantarum [1]; 24 hours contact time): 6.326%
Growth observed after recovering viable Lactobacillus plantarum (Lactobacillus plantarum [1]; concentration 0.049 %): +
Growth observed after recovering viable Lactobacillus plantarum (Lactobacillus plantarum [1]; concentration 0.099 %): +
Growth observed after recovering viable Lactobacillus plantarum (Lactobacillus plantarum [1]; concentration 0.198 %): +
Growth observed after recovering viable Lactobacillus plantarum (Lactobacillus plantarum [1]; concentration 0.395 %): +
Growth observed after recovering viable Lactobacillus plantarum (Lactobacillus plantarum [1]; concentration 0.791 %): +
Growth observed after recovering viable Lactobacillus plantarum (Lactobacillus plantarum [1]; concentration 1.582 %): +
Growth observed after recovering viable Lactobacillus plantarum (Lactobacillus plantarum [1]; concentration 3.163 %): +
Growth observed after recovering viable Lactobacillus plantarum (Lactobacillus plantarum [1]; concentration 6.326 %): +
Minimum concentration at which growth was observed (%) (Lactobacillus plantarum [2]; 30 minutes contact time): 6.326%
Minimum concentration at which growth was observed (%) (Lactobacillus plantarum [2]; 30 minutes contact time, listed as zinc gluconate): ≤ 6.326%
Minimum concentration at which growth was observed (%) (Lactobacillus plantarum [2]; 4 hours contact time): 6.326%
Minimum concentration at which growth was observed (%) (Lactobacillus plantarum [2]; 4 hours contact time, listed as zinc gluconate): ≤ 6.326%
Minimum concentration at which growth was observed (%) (Lactobacillus plantarum [2]; 24 hours contact time): 6.326%
Minimum concentration at which growth was observed (%) (Lactobacillus plantarum [2]; 24 hours contact time, listed as zinc gluconate): ≤ 6.326%
Growth observed after recovering viable Lactobacillus plantarum (Lactobacillus plantarum [2]; concentration 1.5815 %, 30 minutes): +
Growth observed after recovering viable Lactobacillus plantarum (Lactobacillus plantarum [2]; concentration 1.5815 %, 4 hours): +
Growth observed after recovering viable Lactobacillus plantarum (Lactobacillus plantarum [2]; concentration 1.5815 %, 24 hours): +
Growth observed after recovering viable Lactobacillus plantarum (Lactobacillus plantarum [2]; concentration 3.163 %, 30 minutes): +
Growth observed after recovering viable Lactobacillus plantarum (Lactobacillus plantarum [2]; concentration 3.163 %, 4 hours): +
Growth observed after recovering viable Lactobacillus plantarum (Lactobacillus plantarum [2]; concentration 3.163 %, 24 hours): +
Growth observed after recovering viable Lactobacillus plantarum (Lactobacillus plantarum [2]; concentration 6.326 %, 30 minutes): +
Growth observed after recovering viable Lactobacillus plantarum (Lactobacillus plantarum [2]; concentration 6.326 %, 4 hours): +
Growth observed after recovering viable Lactobacillus plantarum (Lactobacillus plantarum [2]; concentration 6.326 %, 24 hours): +
Growth (Lactobacillus plantarum [3]; stock concentration 6.326 %, n = 3): Yes
Growth (Lactobacillus plantarum [3]; stock concentration 6.326 %, n = 3, listed as zinc gluconate): Growth of L. plantarum was observed
